# Results as given in patent US20260021046A1, “LIPID NANOPARTICLE AND PHARMACEUTICAL COMPOSITION” (NATIONAL UNIVERSITY CORPORATION HOKKAIDO UNIVERSITY, priority 2022, published 2026).
# Key:
# [1] = test system: normal mice; experiment: Biological safety in normal mice (serum markers, histopathology); format: in vivo; settings: CL15A6 lipid nanoparticles with EGFP mRNA, 2 mg/kg RNA iv, 24 hours
# Method: In order to exclude the effects of liver fibrosis on hepatic function and tissues, the biosafety of the lipid nanoparticle prepared by using CL15A6 was evaluated in normal mice. Lipid nanoparticles containing EGFP mRNA were administered intravenously to mice at an amount of 2 mg/kg RNA per kg body weight. Twenty-four hours after the administration, the mice were euthanized, and serum and major organs were collected and analyzed in comparison with control mice treated with HEPES buffer. Aspartate transaminase (AST), alanine aminotransferase (ALT), and creatinine (CRE), which are functional markers of the liver or kidney, in plasma were colorimetrically quantified using a commercially available kit (Sigma-Aldrich), and the results were compared. In addition, the collected organs were fixed, stained with hematoxylin and eosin, and histopathologically evaluated as described in NPL 17. • [NPL 17] Mahmoud A. Younis, et al., “Ultra-small lipid nanoparticles encapsulating sorafenib and midkine-siRNA selectively-eradicate sorafenib-resistant hepatocellular carcinoma in vivo”, J Control Release, Vol. 331, pp. 335-349
# [2] = test system: activated hepatic stellate cell line LX-2; experiment: EGFP mRNA delivery and transfection screening by FACS; format: cell-based; settings: LX-2 cells; EGFP mRNA lipid nanoparticles, 250 ng mRNA per well
# Method: Fourteen types of lipid nanoparticles prepared were screened with activated hepatic stellate cell line LX-2 (Merck (Germany) and hepatocyte line FL83B (ATCC, USA).
# Twenty-four hours prior to the experiment, cells were seeded in 6-well plates at 1×10^5 cells/well and incubated at 37° C. The medium was aspirated and the cells were washed with (−) PBS and then treated with lipid nanoparticles encapsulating EGFP mRNA (TriLink BioTechnologies, USA) in 1.5 ml of growth medium for 24 hours. The amount of mRNA per well was 250 ng. Cells were then washed with (−) PBS and incubated in fresh medium for an additional 21 hours. The median fluorescence intensity of EGFP and the percentage of transfected cells were evaluated by fluorescence activated cell sorting (FACS) using a flow cytometer (Cytoflex, Beckman Coulter, USA).
# [3] = test system: hepatic stellate cells; experiment: In vivo mRNA delivery to hepatic stellate cells in TAA-induced liver fibrosis model mice; settings: 24 hours
# Method: Thioacetamide (TAA (TCI, Japan))-induced liver fibrosis models were generated in 4-week-old male BALB/c mise (Sankyo laboratories, Japan). Specifically, TAA dissolved in saline was injected intraperitoneally at an amount of 200 mg/kg of TAA per kg of body weight. This was repeated every 3 days for a total of 10 times. The livers of the liver fibrosis model mice were examined by histopathology and hydroxyproline quantitative assay (Cell Biolabs Inc, USA), and the activation of hepatic stellate cells (HSCs) was confirmed by quantitative real-time polymerase chain reaction (qRT-PCR).
# The lipid nanoparticles prepared by using CL15A6 encapsulated the above-described EGFP mRNA or firefly luciferase (FLuc) mRNA (TriLink BioTechnologies, USA), and the lipid nanoparticles were administered intravenously to mice via the tail vein so that the amount of RNA per kg of body weight was 1 mg/kg. Twenty-four hours after the administration, hepatic stellate cells and hepatocytes were collected from the livers of the mice as described in NPL 15. For EGFP mRNA, FACS was used to evaluate delivery efficiency and transfection efficiency, and for FLuc mRNA, the luciferase assay was used to evaluate delivery efficiency as described in NPL 16. • [NPL 15] Ingmar Mederacke, et al., “High-yield and high-purity isolation of hepatic stellate cells from normal and fibrotic mouse livers”, Nature Protocols, Vol. 10, pp. 305-315 • [NPL 16] Ikramy A. Khalil, et al., “Synergism between a cell penetrating peptide and a pH-sensitive cationic lipid in efficient gene delivery based on double-coated nanoparticles”, Journal of Controlled Release, Vol. 275, pp. 107-116
# First, the microchannel device (iLiNP device) was operated under different conditions to prepare lipid nanoparticles with different average particle sizes. Specifically, lipid nanoparticles with an average particle size of more than 150 nm (e.g., 180 nm), lipid nanoparticles with an average particle size of 100 to 150 nm (e.g., 130 nm), and lipid nanoparticles with an average particle size of less than 100 nm (e.g., 90 nm) were prepared. The prepared lipid nanoparticles were administered intravenously to mice with liver fibrosis, and the mRNA delivery efficiency and transfection efficiency with respect to hepatic stellate cells and hepatocytes were evaluated 24 hours later.
# Next, lipid nanoparticles with different nitrogen/phosphate (N/P) ratios were prepared by mixing a lipid composition containing CL15A6 with mRNA at different ratios. Specifically, lipid nanoparticles with N/P ratios of 4, 8, 12, 16, and 20 were prepared. The prepared lipid nanoparticles were intravenously administered to mice with liver fibrosis, and the mRNA delivery efficiency and transfection efficiency with respect to hepatic stellate cells and hepatocytes were evaluated 24 hours later.
# Next, lipid nanoparticles containing different types of helper phospholipids were prepared by changing the type of helper phospholipid in the lipid composition containing CL15A6. As the unsaturated phosphatidylethanolamine, 1,2-dioleoyl-sn-glycero-3-phosphoethanolamine (DOPE) was used. As the unsaturated phosphatidylcholine, 1,2-dioleoyl-sn-glycero-3-phosphocholine (DOPC) was used. As the saturated phospholipid, 1,2-distearoyl-sn-glycero-3-phosphocholine (DSPC) was used. The prepared lipid nanoparticles were intravenously administered to mice with liver fibrosis, and the mRNA delivery efficiency and transfection efficiency with respect to hepatic stellate cells and hepatocytes were evaluated 24 hours later.
# Next, lipid nanoparticles containing helper phospholipid (DOPE) at different molar percentages were prepared by changing the molar ratio of the helper phospholipid (DOPE). The prepared lipid nanoparticles were intravenously administered to mice with liver fibrosis, and the mRNA delivery efficiency and transfection efficiency with respect to hepatic stellate cells and hepatocytes were evaluated 24 hours later. […]
# [4] = CL15A6 lipid nanoparticles iv, DMG-PEG2K 3 to 5 mol %
# [5] = CL15A6 lipid nanoparticles, 1 mg/kg RNA iv, when particle size was reduced (>150 nm, 100 to 150 nm, <100 nm)
structure (smiles),measurement,setting,value
"CCCCC/C=C\C/C=C\CCCCCCCCC(O)(CCCCCCCC/C=C\C/C=C\CCCCC)CCCCOC(=O)C1CCN(C)CC1 [CL15A6, (14z,17z)-5-hydroxy-5-((9z,12z)-octadeca-9,12-dien-1-yl)tricosa-14,17-dien-1-yl 1-methylpiperidine-4-carboxylate]",ALT,[1],no significant increases
same,AST,[1],no significant increases
same,CRE,[1],no significant increases
same,"histopathology of major organs (liver, lung, heart, and kidney)",[1],no signs of injury
same,mRNA delivery efficiency (median fluorescence intensity of EGFP),[2],high and promising
same,transfection efficiency (percentage of transfected cells),[2],promising
same,mRNA delivery efficiency,"[3]; CL15A6 lipid nanoparticles iv, DMG-PEG2K 1.5 mol %",decreased
same,efficiency of mRNA delivery to hepatic stellate cells,[3]; [4],high
same,hepatic stellate cells transfected in vivo,[3]; [4],≥ 80%
same,delivery of mRNA to hepatic stellate cells,"[3]; CL15A6 lipid nanoparticles iv, DOPE 20 to 30 mol %",significantly improved
same,delivery of mRNA to hepatic stellate cells,"[3]; CL15A6 lipid nanoparticles iv, DOPE 40 mol %",reduced
same,delivery of mRNA to hepatic stellate cells,"[3]; CL15A6 lipid nanoparticles iv, N/P ratio increased from 4 to 8",significantly improved
same,mRNA delivery efficiency,"[3]; CL15A6 lipid nanoparticles iv, N/P ratio increased from 16 to 20",decreased
same,mRNA delivery to hepatic stellate cells,"[3]; CL15A6 lipid nanoparticles iv, helper phospholipid DOPE compared to DOPC and DSPC",significantly improved
same,mRNA delivery efficiency to hepatic stellate cells,[3]; [5],linearly improved
same,transfection efficiency of hepatic stellate cells,[3]; [5],linearly improved
